Measurements published in article PMC8509398, “Proteolytic Cleavage of Bioactive Peptides and Protease-Activated Receptors in Acute and Post-Colitis” (International Journal of Molecular Sciences, 2021).

How the values were obtained:
[1] = target: trypsin-2 (Homo sapiens, UniProt P07478); assay: Cleavage of peptides by purified trypsin-2, MALDI-TOF/TOF; settings: 25 nM protease, 10 µM peptide
Description: Trypsin-like proteases included in the experiments are trypsin-1, -2 and -3, tryptase (Enzo LifeSciences), thrombin (Sigma-Aldrich) and cathepsin G (Sigma-Aldrich). Trypsin-1, -2 and -3 were produced as described by Koistinen et al. and Wu et al.. Two elastase-like enzymes, neutrophil elastase (Enzo LifeSciences, Farmingdale, NY, USA) and pancreatic elastase I (Sigma-Aldrich) were included as well. All enzymes were from human origin except for pancreatic elastase from porcine pancreas.
Reaction mixtures with purified enzymes were compiled in an identical way. Each mixture contained an equimolar concentration of protease (25 nM based on) and 10 µM peptide of interest and was incubated for 2, 5, 10 and 30 min at 37 °C. Substance P was added as the standard peptide except for the reaction mixtures with substance P or bradykinin as the peptide of interest, where angiotensin II (Bachem) was added.
(§1) The TFA mixtures were thawed on ice and desalted using C18 zip-tips (Merck Millipore®, Burlington, MA, USA) with a capacity of 5 µg protein. Retained peptide fragments were eluted directly on the MALDI target plate. Next, 0.5 µL of a 2.5 mg/mL α-cyano-4-hydroxycinnamic acid (Sigma-Aldrich) matrix solution (in 70% acetonitrile, 0.1% TFA) was spotted on top of the sample. A 6-Peptide mixture Kit (AB Sciex, Framingham, MA, USA) containing bradykinin (2–9), angiotensin I, glu1-fibrinopeptide, ACTH (1–17), ACTH (18–39) and ACTH (7–38) was diluted with matrix and spotted on the plate as well.
MS and MS/MS data for peptide fragment identification were obtained with a MALDI-TOF/TOF instrument (4800 MALDI TOF/TOF™, Applied Biosystems, Waltham, MA, USA) and instrument parameters were set using 4000 Series Explorer™ software. MS spectra were recorded in positive reflector mode in a mass range from 500 to 4000 Da and laser intensity of 4500–4800 Hz. The spectra were calibrated using the calibration mixture mentioned above to a mass tolerance of 0.1 Da. MS/MS spectra were recorded with high-energy collision-induced dissociation and the laser intensity was increased by 10%. Precursor mass m/z 1570.65 (Glu1-Fibrinopeptide from the calibration mixture) was used to calibrate the MS/MS spectra to a mass tolerance of 0.1 Da.
MS and MS/MS spectra were processed using DataExplorer™ software and the obtained output files were uploaded in the MS-PEP data analyzer (https://bioit.shinyapps.io/PARs/ accessed 10/08/2020) for peptide fragment identification. Identified fragments were confirmed using the MS/MS spectra and mMass 5.5.0 by Martin Strohalm. The relative intensities of the fragments were calculated as the ratio of the intensity of the peak of interest to the intensity of the peak of the standard peptide.

[2] = Cleavage of peptides by colonic tissue lysates from TNBS-induced colitis rat model, MALDI-TOF/TOF; settings: rat colonic lysates; 10 µM peptide, 20 µg/mL protein, 37 °C, up to 30 min, MALDI-TOF/TOF, n = 8 per group
Experimental: Adult male Sprague–Dawley rats (200–225 g; Charles River, Wilmington, MA, USA) were used in a previously described TNBS-induced acute and post-inflammatory model. Rats were housed at constant room temperature (22 ± 2 °C) and humidity (60%) with two rats per cage, unlimited access to water and food and on a 12 h–12 h light/dark cycle.
After an overnight fast, TNBS colitis was induced using a TNBS-enema (4 mg TNBS; Sigma-Aldrich, 50% ethanol) as described previously. Rats were anesthetized with a mixture of ketamine (35 mg/kg i.p.; Ketalar®, Pfizer, New York City, NY, USA) and xylazine (5 mg/kg i.p.; Rompun®, Bayer, Leverkusen, Germany), and the TNBS-enema or 0.9% saline was administered intrarectally using a flexible catheter (18 G, length 4.5 cm) to colitis and control rats, respectively. Animals were kept in a tail-up position for 1 min and were then allowed to recover in their cages with free access to water and food. […] For the post-colitis group (n = 8), a colonoscopy was performed starting from day 10 and repeated every 4 days until complete mucosal healing was observed. The rats were then sacrificed as well and colonic samples were taken.
Colonic lysates were prepared for studying their effects on cleavage patterns of added peptides with a MALDI-TOF/TOF assay. After sacrifice, a sample of approximately 50 mg of distal colon was taken from each rat. The colonic samples were immediately rinsed with Krebs solution, snap-frozen and stored at −80 °C until further processing. Sample preparation started with crushing the colonic samples on dry ice. Liquid nitrogen was used to prevent the loss of enzymatic activity due to temperature increases and the colon powders were stored at −80 °C for further experiments. […] After centrifugation, the supernatants were collected and used immediately to prepare the reaction mixtures, measure proteolytic activities with fluorogenic substrates and determine the protein content with a Bradford assay.
Colonic lysate was added to a peptide of interest to obtain the reaction mixtures with the colonic samples. Lysate and peptide were diluted so each mixture contained 10 µM peptide of interest and 20 µg/mL protein originating from the colonic tissue. These peptide and protein concentrations were based on research from Loew et al. and O’ Donoghue et al.. The mixtures were incubated at 37 °C for several incubation periods between 5 and 30 min. Afterward, the fragmentation reaction was stopped by adding trifluoroacetic acid (TFA; Alfa Aesar™, ThermoFisher, Waltham, MA, USA) to a final concentration of 2% and standard peptide (substance P, bradykinin or PAR3-based peptide) was added in a final concentration of 10 µM. Standard peptides were selected based on the mass of the peptides of interest. For each sample/peptide combination, a starting point was included as well. Here, TFA was added immediately after mixing the reaction constituents. Samples were stored at −80 °C for further MALDI-TOF/TOF experiments.
as §1
MS and MS/MS data for peptide fragment identification were obtained with a MALDI-TOF/TOF instrument (4800 MALDI TOF/TOF™, Applied Biosystems, Waltham, MA, USA) and instrument parameters were set using 4000 Series Explorer™ software. MS spectra were recorded in positive reflector mode in a mass range from 500 to 4000 Da and laser intensity of 4500–4800 Hz.

trypsin-2, sequence (P07478 24-247): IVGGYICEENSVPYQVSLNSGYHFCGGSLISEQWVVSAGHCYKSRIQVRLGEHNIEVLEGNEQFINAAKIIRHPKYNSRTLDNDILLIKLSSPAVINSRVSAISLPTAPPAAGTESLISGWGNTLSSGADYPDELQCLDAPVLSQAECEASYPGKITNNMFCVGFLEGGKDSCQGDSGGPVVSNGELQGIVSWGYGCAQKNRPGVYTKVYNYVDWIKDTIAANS

CC[C@H](C)[C@H](NC(=O)[C@H](CO)NC(=O)[C@H](CC(N)=O)NC(=O)[C@H](CC(C)C)NC(=O)[C@H](Cc1ccc(O)cc1)NC(=O)[C@H](CCCCN)NC(=O)[C@H](CCCCN)NC(=O)[C@@H](NC(=O)[C@H](C)NC(=O)[C@H](CCSC)NC(=O)[C@H](CCC(N)=O)NC(=O)[C@H](CCCCN)NC(=O)[C@H](CCCN=C(N)N)NC(=O)[C@H](CC(C)C)NC(=O)[C@H](CCCN=C(N)N)NC(=O)[C@@H](NC(=O)[C@H](Cc1ccc(O)cc1)NC(=O)[C@H](CC(N)=O)NC(=O)[C@H](CC(=O)O)NC(=O)[C@@H](NC(=O)[C@H](Cc1ccccc1)NC(=O)[C@@H](NC(=O)[C@H](C)NC(=O)[C@H](CC(=O)O)NC(=O)[C@H](CO)NC(=O)[C@@H](N)Cc1c[nH]cn1)C(C)C)[C@@H](C)O)[C@@H](C)O)C(C)C)C(=O)N[C@@H](CC(C)C)C(=O)N[C@@H](CC(N)=O)C(N)=O [VIP, Vasoactive intestinal peptide]
Efficiency of the first cleavage in the peptide, Trypsin-2 ([1]; 37 °C, 2, 5, 10 and 30 min, stopped with 2% TFA): +++ (ultrafast processing within 2 min) | Incubation time at which the first cleavage or decrease of the full-length peptide was observed, trypsin-2 ([1]; 37 °C, time points 2, 5, 10, 30 min): 2 min | Processing by colonic samples, in words (comparison of control, post-colitis and acute colitis) [2]: no differences
